“And” between values parts separate entries of the source, which are not always exact repeats. Identical values can stand only once. Inconclusive results and toxic doses are left out. The calls were made as follows: active = survival T/C of 150% or more; inactive = T/C below 125% in these data.
Tested on: BDF1 mice, P388 leukemia ip, median survival T/C
Assay: NCI In Vivo Anticancer Drug Screen. Data for tumor model P388 Leukemia (intraperitoneal) in B6D2F1 (BDF1) mice
Settings: endpoint: median survival time, higher = longer survival
Procedure, shortened: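 T/C = treated-group survival ÷ vehicle-control survival; tumour transplanted into mice before dosing.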

[1] = dose: 25.0 mg/kg/injection, schedule: Q04DX003 (ip), vehicle: saline
[2] = dose: 50.0 mg/kg/injection, schedule: Q01DX009 (ip), vehicle: saline with Tween-80
[3] = dose: 50.0 mg/kg/injection, schedule: Q04DX003 (ip), vehicle: saline with Tween-80
[4] = dose: 100.0 mg/kg/injection, schedule: Q01DX009 (ip), vehicle: saline with Tween-80
[5] = dose: 100.0 mg/kg/injection, schedule: Q04DX003 (ip), vehicle: saline with Tween-80
[6] = dose: 200.0 mg/kg/injection, schedule: Q01DX009 (ip), vehicle: saline with Tween-80
[7] = dose: 200.0 mg/kg/injection, schedule: Q04DX003 (ip), vehicle: saline with Tween-80
[8] = dose: 400.0 mg/kg/injection, schedule: Q01DX009 (ip), vehicle: saline with Tween-80
[9] = dose: 400.0 mg/kg/injection, schedule: Q04DX003 (ip), vehicle: saline with Tween-80
[10] = dose: 100.0 mg/kg/injection, schedule: Q01DX009 (ip), vehicle: Klucel (hydroxypropylcellulose) (HPC)
[11] = dose: 200.0 mg/kg/injection, schedule: Q01DX009 (ip), vehicle: Klucel (hydroxypropylcellulose) (HPC)
[12] = dose: 12.5 mg/kg/injection, schedule: Q01DX009 (ip), vehicle: saline
[13] = dose: 25.0 mg/kg/injection, schedule: Q01DX009 (ip), vehicle: saline
[14] = dose: 50.0 mg/kg/injection, schedule: Q01DX009 (ip), vehicle: saline
[15] = dose: 50.0 mg/kg/injection, schedule: Q04DX003 (ip), vehicle: saline
[16] = dose: 100.0 mg/kg/injection, schedule: Q01DX001 (ip), vehicle: saline sonified
[17] = dose: 200.0 mg/kg/injection, schedule: Q01DX001 (ip), vehicle: saline sonified
[18] = dose: 12.5 mg/kg/injection, schedule: Q04DX003 (ip), vehicle: water
[19] = dose: 25.0 mg/kg/injection, schedule: Q04DX003 (ip), vehicle: water
[20] = dose: 50.0 mg/kg/injection, schedule: Q04DX003 (ip), vehicle: water
[21] = dose: 100.0 mg/kg/injection, schedule: Q01DX009 (ip), vehicle: saline
[22] = dose: 200.0 mg/kg/injection, schedule: Q01DX009 (ip), vehicle: saline
[23] = dose: 25.0 mg/kg/injection, schedule: Q01DX009 (ip), vehicle: saline with Tween-80
[24] = dose: 50.0 mg/kg/injection, schedule: Q01DX001 (ip), vehicle: saline sonified

Measured: T/C

Nc1cc(=O)[nH]c(O)c1C(=O)O
inactive: dose: 6.25 mg/kg/injection, schedule: Q04DX003 (ip), vehicle: saline 109 % of control | dose: 12.5 mg/kg/injection, schedule: Q04DX003 (ip), vehicle: saline 100 % of control | [1] 100 % of control | dose: 35.0 mg/kg/injection, schedule: Q04DX003 (ip), vehicle: saline 100 % of control | dose: 55.0 mg/kg/injection, schedule: Q04DX003 (ip), vehicle: saline 113 % of control | dose: 80.0 mg/kg/injection, schedule: Q04DX003 (ip), vehicle: saline 100 % of control | dose: 120.0 mg/kg/injection, schedule: Q04DX003 (ip), vehicle: saline 104 % of control | dose: 180.0 mg/kg/injection, schedule: Q04DX003 (ip), vehicle: saline 86 % of control | dose: 270.0 mg/kg/injection, schedule: Q04DX003 (ip), vehicle: saline 100 % of control

CC(=O)C1CCC2C3CCC4=CC(=O)CC4(C)C3CCC12C (stereo unspecified)
inactive: [2] 95 % of control | [3] 104 % of control | [4] 90 % of control and 100 % of control | [5] 95 % of control and 104 % of control | [6] 90 % of control and 95 % of control | [7] 90 % of control and 95 % of control | [8] 86 % of control | [9] 90 % of control

CC1(C)CC2(OC2c2ccccc2)C(C)(O)c2ccccc21 (stereo unspecified)
inactive: [10] 95 % of control | dose: 100.0 mg/kg/injection, schedule: Q04DX003 (ip), vehicle: Klucel (hydroxypropylcellulose) (HPC) 110 % of control | [11] 90 % of control | dose: 200.0 mg/kg/injection, schedule: Q04DX003 (ip), vehicle: Klucel (hydroxypropylcellulose) (HPC) 105 % of control | dose: 400.0 mg/kg/injection, schedule: Q01DX009 (ip), vehicle: Klucel (hydroxypropylcellulose) (HPC) 100 % of control | dose: 400.0 mg/kg/injection, schedule: Q04DX003 (ip), vehicle: Klucel (hydroxypropylcellulose) (HPC) 105 % of control

CNC(C)Cc1ccccc1OC (stereo unspecified)
inactive: [12] 89 % of control | [13] 89 % of control | [1] 88 % of control | [14] 92 % of control | [15] 92 % of control

CC(SC(C)c1ccccc1)c1ccccc1 (stereo unspecified)
inactive: [5] 108 % of control | [7] 108 % of control | [9] 116 % of control

O=S1(=O)N2CN3CN(C2)CN1C3
inactive: dose: 12.5 mg/kg/injection, schedule: Q04DX003 (ip), vehicle: Klucel (hydroxypropylcellulose) (HPC) 121 % of control | dose: 50.0 mg/kg/injection, schedule: Q04DX003 (ip), vehicle: Klucel (hydroxypropylcellulose) (HPC) 105 % of control

CC(C)(C)c1cccc(S(=O)(=O)Oc2ccccc2[N+](=O)[O-])c1
inactive: [16] 100 % of control | [17] 118 % of control | dose: 400.0 mg/kg/injection, schedule: Q01DX001 (ip), vehicle: saline sonified 95 % of control

CC(=O)OC1(C)N=NC2(CCCCC2)O1 (stereo unspecified)
inactive: [2] 102 % of control | [4] 98 % of control | [6] 112 % of control

O=C(c1cccnc1)C1Cc2ccccc2C1=O (stereo unspecified)
inactive: [4] 100 % of control | [5] 100 % of control | [6] 100 % of control | [7] 100 % of control | [8] 91 % of control | [9] 104 % of control

C/C(=C/CC(=O)O)C(=O)O
inactive: [18] 119 % of control | [19] 97 % of control | [20] 97 % of control | dose: 100.0 mg/kg/injection, schedule: Q04DX003 (ip), vehicle: water 103 % of control | dose: 200.0 mg/kg/injection, schedule: Q04DX003 (ip), vehicle: water 122 % of control

CCCCCOC(=O)c1ccc(OP(=O)(N(C)C)N(C)C)cc1
inactive: [2] 116 % of control | [4] 100 % of control

CCCCCCCCCCCC[N+]1([O-])CCCC1
inactive: [12] 100 % of control | [13] 93 % of control | [14] 87 % of control

CN(C)C=Nc1cc(Cl)c(Cl)cc1Cl
inactive: [14] 100 % of control | [21] 110 % of control | [22] 111 % of control

S=c1[nH]cc2cnccn12
inactive: [23] 110 % of control | [2] 115 % of control | [5] 100 % of control | [6] 105 % of control | [7] 110 % of control

CCCCC/C(C=C(C#N)C#N)=C/c1ccccc1
inactive: [23] 100 % of control | [4] 119 % of control

CC(=O)Nc1ccc(N2CCN=N2)cc1
inactive: [12] 110 % of control | [13] 95 % of control | [14] 105 % of control | dose: 75.0 mg/kg/injection, schedule: Q01DX009 (ip), vehicle: Klucel (hydroxypropylcellulose) (HPC) 104 % of control

C=CC(C)(C)C12CC3C(=O)N/C(=C\c4cnc[nH]4)C(=O)N3C1Nc1ccccc12 (stereo unspecified)
inactive: dose: 50.0 mg/kg/injection, schedule: Q01DX009 (ip), vehicle: Klucel (hydroxypropylcellulose) (HPC) 94 % of control | [10] 94 % of control | [11] 92 % of control

CCOC(=O)C1=C(O)c2c(sc(C)c2C)N(S(=O)(=O)c2ccc(C)cc2)CC1
inactive: [23] 90 % of control | [2] 113 % of control | [3] 91 % of control | [4] 104 % of control | [5] 91 % of control | [6] 109 % of control | [7] 91 % of control | [9] 100 % of control

CCOC(=O)C(c1cccc(OC)c1)C1(C(=O)OCC)CC2(CCC1=O)OCCO2 (stereo unspecified)
inactive: [24] 104 % of control | [16] 100 % of control | [17] 100 % of control

COn1nnc2c([N+](=O)[O-])cccc21
inactive: [2] 109 % of control

O=C(O)C(NC1CCCCC1)c1ccccc1 (stereo unspecified)
inactive: [14] 120 % of control | [21] 105 % of control | [22] 100 % of control

C1CCC2C(C1)NC1CCCCC12 (stereo unspecified)
inactive: dose: 12.0 mg/kg/injection, schedule: Q04DX003 (ip), vehicle: saline 109 % of control | dose: 12.5 mg/kg/injection, schedule: Q01DX001 (ip), vehicle: saline sonified 100 % of control | dose: 25.0 mg/kg/injection, schedule: Q01DX001 (ip), vehicle: saline sonified 90 % of control | [13] 112 % of control | [1] 95 % of control | [24] 90 % of control | [14] 104 % of control | [15] 109 % of control

CCCCCCCCCCCCCCCCCC(=O)NN
inactive: dose: 12.5 mg/kg/injection, schedule: Q04DX003 (ip), vehicle: saline with Tween-80 105 % of control | dose: 25.0 mg/kg/injection, schedule: Q04DX003 (ip), vehicle: saline with Tween-80 98 % of control | [3] 98 % of control

CCCCCCCCCCCCCCCCCCCCCCCCC(O)C(=O)NC(CO)C(O)C(O)CCCCCCCCCCCCCC (stereo unspecified)
inactive: [9] 87 % of control

O=C(O)CNC1CSSC1
inactive: dose: 1.56 mg/kg/injection, schedule: Q04DX003 (ip), vehicle: water 97 % of control | dose: 3.12 mg/kg/injection, schedule: Q01DX009 (ip), vehicle: water 111 % of control | dose: 3.12 mg/kg/injection, schedule: Q04DX003 (ip), vehicle: water 88 % of control | dose: 6.25 mg/kg/injection, schedule: Q01DX009 (ip), vehicle: water 101 % of control | dose: 6.25 mg/kg/injection, schedule: Q04DX003 (ip), vehicle: water 93 % of control | [18] 88 % of control | dose: 25.0 mg/kg/injection, schedule: Q01DX009 (ip), vehicle: water 109 % of control | [19] 94 % of control | dose: 50.0 mg/kg/injection, schedule: Q01DX009 (ip), vehicle: water 108 % of control | [20] 86 % of control | dose: 100.0 mg/kg/injection, schedule: Q01DX009 (ip), vehicle: water 91 % of control

Cc1ccc2c(c1)C(=O)CC=C(C(=O)O)N2
inactive: dose: 100.0 mg/kg/injection, schedule: Q04DX003 (ip), vehicle: saline 100 % of control | [6] 87 % of control | dose: 200.0 mg/kg/injection, schedule: Q04DX003 (ip), vehicle: saline 110 % of control | dose: 400.0 mg/kg/injection, schedule: Q04DX003 (ip), vehicle: saline 105 % of control

COc1cc(OC)c(NC(=O)c2ccc([N+](=O)[O-])s2)cc1Cl
inactive: dose: 25.0 mg/kg/injection, schedule: Q01DX005 (ip), vehicle: saline 102 % of control | dose: 50.0 mg/kg/injection, schedule: Q01DX005 (ip), vehicle: saline 89 % of control

From PubChem BioAssay AID328 (DTP/NCI, 2004)
